Patent publication EP0222578A2, “Use of cyclic somatostatin analogues in the treatment of immediate hypersensitivity diseases” (Merck & Co., Inc., priority 1985, dated 1987)

Columns and labels:
[1] = test system: Antigen-Induced Dyspnea in Inbred Rats; test: Antigen-induced dyspnea in sensitized inbred asthmatic rats challenged with aerosolized egg albumin; assay type: in vivo; conditions: for Duration of Dyspnea in Minutes (Mean±S.D.) n=6/group: 1 mg/kg s.c. 1 hour before antigen challenge; for Inhibition %: inhibition of duration of dyspnea vs vehicle control, 1 mg/kg s.c. 1 hour
Text: Sensitized inbred "asthmatic rats" challenged with aerosolized antigen respond with symptoms of continuous dyspnea which is partly mediated by serotonin. […] These rats differed from normal rats in that they have nonspecific bronchial hyperreactivity to a number of bronchoconstrictor agents (Brunet et al., J. Immun., 131, 434-438 (1983)].
• (1) Animals: Rats were obtained from an inbred line of asthmatic rats that were developed and maintained in local laboratories and later at a local farm. Male and female rats were used between 10-12 weeks of age. Their weights ranged from 220-240 gm (females) and 350-400 gm (males). Rats were matched by sex and littermates between the various treatment groups. • (2) Materials: Egg albumin (EA), grade V, crystallized and lyophilized (Sigma Chemical Co., St. Louis), aluminum hydroxide (Reheis Chemical Company, Chicago), and methysergide bimaleate (Sandoz Ltd., Basel, Switzerland). • (3) Apparatus: The challenge and subsequent respiratory recordings were carried out in a clear plastic box with internal dimensions 10 x 6 x 4 inches. The top of the box was removable; in use, it was held firmly in place by four clamps and an airtight seal was maintained by a soft rubber gasket. Through the centre of each end of the chamber a Devilbiss nebulizer (No. 40) was inserted via an airtight seal and each end of the box was also equipped with an outlet. A Fleisch No. 0000 pneumotachograph was inserted into one end of the box and coupled to a Grass volumetric pressure transducer (PT5-A) which was then connected to a Beckman Type R Dynograph through appropriate couplers. While aerosolizing the antigen, the outlets were open and the pneumotachograph was isolated from the chamber. The outlets were closed and the pneumotachograph and the chamber were connected during the recordings of the respiratory patterns. For challenge, 2 ml of 3% solution of antigen in saline was placed into each nebulizer and the aerosol was generated with air from a small Potter diaphragm pump operating at 10 psi and a flow of 8 litre/minute. • (4) Procedure: Rats were sensitized by injecting (s.c.) 1 ml of suspension containing 1 mg egg albumin (EA) and 200 mg aluminum hydroxide in saline. They were used on day 13 post sensitization. Rats were exposed to aerosol of 3% EA in saline for exatly 1 minute, then their respiratory profiles were recorded for an additional 30 minutes. The duration of continuous dyspnea was measured from the respiratory recordings.
Form.I-8) was administered subcutaneously as a solution in 5% mannitol 1 hour prior to challenge with antigen. Methysergide bimaleate was dissolved in saline and given intravenously at dose of 3 ug/kg 5 minutes before challenge. Dose volume employed for subcutaneous treatments was 2 ml/kg and for i.v. treatments 1 ml/kg. Control groups of rats (n-6) were treated subcutaneously with drug vehicle (5% mannitol).
The sensitivity of various drug treatments were determined in terms of the decrease in duration of dyspnea in comparison with a group of vehicle- treated controls. Comparisons between groups were made using the Student's t-test.

[2] = test system: Antigen-Induced Dyspnea in Inbred Rats; conditions: 3 µg/kg i.v. before challenge; background statement in the introduction; cited from earlier work

Compound	Duration of Dyspnea in Minutes (Mean±S.D.) n=6/group ([1]; + Methysergide (3 µg/kg i.v. 5 minutes prior to challenge)) [min]	Duration of Dyspnea in Minutes (Mean±S.D.) n=6/group ([1]; - Methysergide) [min]	activity on duration of antigen-induced dyspnea ([1]; 1 mg/kg s.c., without methysergide to block the serotonin component)	Inhibition % ([1]; + Methysergide (3 µg/kg i.v. 5 minutes prior to challenge), p < 0.01) [p < 0.01%]	Inhibition % ([1]; + Methysergide (3 µg/kg i.v. 5 minutes prior to challenge); p < 0.01; listed as Form.1-8)) [%]	Inhibition % ([1]; - Methysergide) [%]	serotonin component of continuous dyspnea [2]
CC(C)[C@@H]1NC(=O)[C@H](CCCCN)NC(=O)[C@@H](Cc2c[nH]c3ccccc23)NC(=O)[C@H](Cc2ccc(O)cc2)NC(=O)[C@H](C)N(C)C(=O)[C@H](Cc2ccccc2)NC1=O [Form.I-8), Cycle-(N-Me-Ala-Tyr-D-Trp-Lys-Val-Phe)]	5.7 ± 3.9	18.2 ± 3.6	failed to produce activity	57	57	0	–
CC[C@@H](CO)NC(=O)[C@@H]1C=C2c3cccc4c3c(cn4C)C[C@H]2N(C)C1 [methysergide, methysergide bimaleate]	–	–	–	–	–	–	completely blocked
